What all share (assay type): biochemical
For one test, the target named is rhVAP-1 (Homo sapiens (Human), UniProt Q16853). The experiment in a line: VAP-1 fluorometric assay (Amplex Red/HRP, benzylamine substrate). The note with it: class symbols, ranges defined in μM. On the procedure:
The capability of compounds described herein to inhibit the enzymatic activity of vascular adhesion protein-1 (VAP-1) was determined by fluorometric assay. The assay procedure provided by R&D Systems was modified slightly for use as an inhibitor screening assay. The assay measured the H2O2 generated from the oxidative deamination of benzylamine by rhVAP-1 by converting Amplex® Red to the fluorescent product, resorufin, via horseradish peroxidase (HRP) and H2O2. Reaction buffer was 10 mM NaHCO3, pH 7.4. A standard curve was prepared by serially diluting H2O2 in reaction buffer. A 10 μM solution of resorufin was prepared in reaction buffer and was dispensed to 2 wells. These wells served as positive control for maximum fluorescence. Reaction buffer was added to the individual wells so that the final volume in each well was 100 μL. Amplex Red was diluted to 1 mM in reaction buffer. A 10 U stock of HRP was prepared in reaction buffer. A reaction cocktail was prepared by mixing equal parts 1 mM Amplex Red with 10 U HRP with 3 parts reaction buffers. The reaction cocktail was added to the appropriate wells, so that that final concentration in the well was 0.05 mM Amplex Red and 0.5 U HRP. A 200 μM solution of benzylamine was prepared in reaction buffer. Benzylamine was added to the appropriate wells so that the final concentration was 50 μM. Inhibitors were diluted in DMSO to 20× and distributed to the appropriate wells. LJP-1207 served a positive control. rhVAP-1 was purchased from R&D Systems. The concentration used for each lot was determined so that the activity was equal to the first lot. Two wells were left blank as controls. The plate was incubated for 30 minutes at 37° C., protected from light under foil. The plate was read at 530/35 emission and 590/35 excitation. Data processing was performed using Excel and Prism software.
The capability of compounds described herein to inhibit the enzymatic activity of vascular adhesion protein-1 (VAP-1) was determined by fluorometric assay. The assay procedure provided by R&D Systems was modified slightly for use as an inhibitor screening assay. The assay measured the H2O2 generated from the oxidative deamination of benzylamine by rhVAP-1 by converting Amplex® Red to the fluorescent product, resorufin, via horseradish peroxidase (HRP) and H2O2. Amplex Red, HRP, Benzylamine, inhibitors (with DMSO as vehicle, 0.5% v/v) and rhVAP-1 were added to the wells. Assay was conducted in 10 mM NaHCO3, pH 7.4. A standard curve was prepared by serially diluting H2O2 in reaction buffer. The plate was incubated for 30 minutes at 37° C., protected from light under foil. The plate was read at 530/35 emission and 590/35 excitation. Data processing was performed using Prism software.

The target of another test is rhMAO-A (Homo sapiens (Human), UniProt P21397). The experiment in a line: MAO-Glo assay, MAO-A inhibition. On the procedure: (§1) The capability of compounds described herein to inhibit MAO was determined using a modified Promega MAO-Glo™ assay kit. The substrate ((4S)-4,5-dihydro-2-(6-hydroxybenzothiazolyl)-4-thiazolecarboxylic acid) was converted by MAO to produce methyl ester luciferin. The luciferin was then converted by luciferase to produce oxyluciferin and light. The light was measured using a luminescence setting on the plate reader. A standard curve was prepared by serially diluting luciferin in reaction buffer. The standard kit reaction buffer was used—100 mM HEPES (pH 7.5), 5% glycerol. The substrate was dispensed into the wells so that the final concentration for MAO-A inhibition assay would be 10 μM and MAO-B inhibition assay would be […]. Inhibitors were diluted in DMSO to 4× and distributed to the appropriate wells. Clorgyline and Deprenyl served as positive controls. rhMAO-A and rhMAO-B were purchased from Sigma. MAO-A or MAO-B was added to the appropriate wells. The plate was incubated for 1 hour, at room temperature with gentle shaking (90 rpm). The detection agent was added at equal volume (48 μL detection agent to 48 μL reaction). The plate was incubated for 20 minutes, at room temperature with gentle shaking (90 rpm). The plate luminescence was read. Data processing was performed using Prism software.
(§2) The capability of compounds described herein to inhibit MAO was determined using a modified Promega MAO-Glo™ assay. Test compounds, substrate and enzyme were incubated per manufacturer instructions for 1 hour, at room temperature with gentle shaking (90 rpm) before addition of detection agent. The detection agent was added at equal volume (48 μL detection agent to 48 μL reaction). The plate was incubated for 20 minutes, at room temperature with gentle shaking (90 rpm). The plate luminescence was read. Data processing was performed using Prism software.

In a further test the target is rhMAO-B (Homo sapiens (Human), UniProt P27338). The experiment in a line: MAO-Glo assay, MAO-B inhibition. The procedure: as §1, §2
Setting [1] is: class symbols, ranges defined in μM.

Counter-ions that a name gives are not always drawn.

As a reminder, the IC50 is the midpoint of a concentration-inhibition curve.

Sequence of rhMAO-A (P21397 whole entry): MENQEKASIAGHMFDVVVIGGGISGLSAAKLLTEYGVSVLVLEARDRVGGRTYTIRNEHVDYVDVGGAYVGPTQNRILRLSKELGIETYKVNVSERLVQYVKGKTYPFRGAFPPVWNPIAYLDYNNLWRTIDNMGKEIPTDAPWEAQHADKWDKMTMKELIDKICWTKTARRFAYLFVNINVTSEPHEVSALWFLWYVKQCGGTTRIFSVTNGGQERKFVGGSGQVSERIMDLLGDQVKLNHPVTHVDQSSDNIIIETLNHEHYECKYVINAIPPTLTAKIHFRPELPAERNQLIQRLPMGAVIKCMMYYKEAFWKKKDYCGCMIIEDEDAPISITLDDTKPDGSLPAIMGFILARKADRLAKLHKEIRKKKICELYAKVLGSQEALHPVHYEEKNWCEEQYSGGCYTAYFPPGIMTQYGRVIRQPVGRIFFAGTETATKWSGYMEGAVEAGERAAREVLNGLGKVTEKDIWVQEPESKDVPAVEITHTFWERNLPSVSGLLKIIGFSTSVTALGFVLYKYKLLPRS
Sequence of rhMAO-B (P27338 whole entry): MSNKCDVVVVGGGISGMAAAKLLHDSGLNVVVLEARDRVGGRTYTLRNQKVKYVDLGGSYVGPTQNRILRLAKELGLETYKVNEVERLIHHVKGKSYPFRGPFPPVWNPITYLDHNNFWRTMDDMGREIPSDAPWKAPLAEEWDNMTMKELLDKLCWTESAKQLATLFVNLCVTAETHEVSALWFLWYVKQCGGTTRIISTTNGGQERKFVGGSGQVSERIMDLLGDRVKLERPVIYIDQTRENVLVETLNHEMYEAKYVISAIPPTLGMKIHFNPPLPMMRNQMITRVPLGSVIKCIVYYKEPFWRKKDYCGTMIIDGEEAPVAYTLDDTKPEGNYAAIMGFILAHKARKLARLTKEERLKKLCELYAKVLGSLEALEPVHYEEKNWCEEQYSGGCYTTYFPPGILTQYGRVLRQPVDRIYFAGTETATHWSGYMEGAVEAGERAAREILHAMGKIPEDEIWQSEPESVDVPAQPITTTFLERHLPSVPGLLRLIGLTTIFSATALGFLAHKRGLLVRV
Sequence of rhVAP-1 (Q16853 whole entry): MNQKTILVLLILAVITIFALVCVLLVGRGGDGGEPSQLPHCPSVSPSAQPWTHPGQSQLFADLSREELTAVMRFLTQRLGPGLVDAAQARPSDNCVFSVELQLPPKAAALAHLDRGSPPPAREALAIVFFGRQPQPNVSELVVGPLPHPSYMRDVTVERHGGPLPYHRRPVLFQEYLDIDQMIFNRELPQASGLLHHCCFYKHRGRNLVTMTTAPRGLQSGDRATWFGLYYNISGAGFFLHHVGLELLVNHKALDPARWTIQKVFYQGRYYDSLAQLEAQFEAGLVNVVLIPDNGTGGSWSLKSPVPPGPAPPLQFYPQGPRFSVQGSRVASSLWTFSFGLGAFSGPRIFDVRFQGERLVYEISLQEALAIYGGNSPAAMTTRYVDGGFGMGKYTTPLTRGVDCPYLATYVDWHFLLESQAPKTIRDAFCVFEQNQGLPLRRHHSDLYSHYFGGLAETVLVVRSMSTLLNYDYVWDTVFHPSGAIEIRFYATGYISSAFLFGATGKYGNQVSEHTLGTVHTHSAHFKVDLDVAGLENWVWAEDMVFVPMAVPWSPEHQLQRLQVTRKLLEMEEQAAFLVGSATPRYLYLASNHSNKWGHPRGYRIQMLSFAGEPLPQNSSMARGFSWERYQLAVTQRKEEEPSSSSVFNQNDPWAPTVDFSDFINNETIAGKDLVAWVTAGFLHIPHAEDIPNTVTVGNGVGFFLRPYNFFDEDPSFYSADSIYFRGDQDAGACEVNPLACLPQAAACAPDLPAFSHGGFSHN

Consider `Cc1ccc(CNc2nc3ccc(OC/C(=C/F)CN)cc3o2)cn1` [Example 55, (E)-6-((2-(aminomethyl)-3-fluoroallyl)oxy)-N-((6-methylpyridin-3-yl)methyl)benzo[d]oxazol-2-amine 4-methylbenzenesulfonate], for which the IC50 at rhVAP-1 is less than 0.1 µM; against rhMAO-A (bound printed in cell), greater than 35 µM; on rhMAO-B (setting [1]), 1 to 10 µM.
As to `NC/C(=C\F)COc1ccc2nc(N3CCC(O)C3)oc2c1` (stereo not drawn) [Example 85, (E)-1-(6-((2-(aminomethyl)-3-fluoroallyl)oxy)benzo[d]oxazol-2-yl)pyrrolidin-3-ol 4-methylbenzenesulfonate], the IC50 was less than 0.1 µM on rhVAP-1, 1 to 10 µM on rhMAO-A (setting [1]) and 1 to 10 µM on rhMAO-B (setting [1]).
`NC/C(=C\F)COc1ccc2nc(N3CCS(=O)(=O)CC3)oc2c1` [Example 90, (E)-4-(6-((2-(aminomethyl)-3-fluoroallyl)oxy)benzo[d]oxazol-2-yl)thiomorpholine 1,1-dioxide 4-methylbenzenesulfonate]: the IC50 on rhVAP-1 was less than 0.1 µM; against rhMAO-A (bound printed in cell), greater than 50 µM; against rhMAO-B (setting [1]) it was 1 to 10 µM.
For `CCCC(C)c1nc2ccc(OC/C(=C/F)CN)cc2o1` (stereo not drawn) [Example 43, (E)-3-fluoro-2-(((2-(pentan-2-yl)benzo[d]oxazol-6-yl)oxy)methyl)prop-2-en-1-amine 4-methylbenzenesulfonate], the values for the IC50 at rhVAP-1, against rhMAO-A (setting [1]) and at rhMAO-B (setting [1]) were less than 0.1 µM, 10 to 30 µM and 0.1 to 1 µM, respectively.
Turning to `NC/C(=C/F)COc1ccc2nc(NCc3ccncc3)oc2c1` [Example 94, (Z)-6-((2-(aminomethyl)-3-fluoroallyl)oxy)-N-(pyridin-4-ylmethyl)benzo[d]oxazol-2-amine 4-methylbenzenesulfonate], the IC50 against rhVAP-1 is less than 0.1 µM; against rhMAO-A (bound printed in cell), greater than 50 µM; against rhMAO-B (setting [1]), 0.1 to 1 µM.
On to `CC(C)(C)c1nc2ccc(OC/C(=C/F)CN)cc2o1` [Example 50, (E)-2-(((2-(tert-butyl)benzo[d]oxazol-6-yl)oxy)methyl)-3-fluoroprop-2-en-1-amine 4-methylbenzenesulfonate], for which the IC50 at rhVAP-1 is less than 0.1 µM; on rhMAO-A (setting [1]), 10 to 30 µM; against rhMAO-B (setting [1]) it was 1 to 10 µM.
In the case of `Cc1cc(CNc2nc3ccc(OC/C(=C/F)CN)cc3o2)cc(C)n1` [Example 91, (E)-6-((2-(Aminomethyl)-3-fluoroallyl)oxy)-N-((2,6-dimethylpyridin-4-yl)methyl)benzo[d]oxazol-2-amine trihydrochloride], the IC50 on rhVAP-1 is less than 0.1 µM; against rhMAO-A (bound printed in cell) it was greater than 50 µM; at rhMAO-B (setting [1]) it was 1 to 10 µM.
As to `COCCNc1nc2ccc(OC/C(=C\F)CN)cc2o1` [Example 61, (Z)-6-((2-(aminomethyl)-3-fluoroallyl)oxy)-N-(2-methoxyethyl)benzo[d]oxazol-2-amine 4-methylbenzenesulfonate], the IC50 on rhVAP-1 is less than 0.1 µM; at rhMAO-A (bound printed in cell), greater than 50 µM; at rhMAO-B (setting [1]) it was 1 to 10 µM.
Taken in the same sequence, the figures for `NC/C(=C/F)COc1ccc2nc(NCc3cccnc3)oc2c1` [Example 58, (Z)-6-((2-(aminomethyl)-3-fluoroallyl)oxy)-N-(pyridin-3-ylmethyl)benzo[d]oxazol-2-amine bis(4-methylbenzenesulfonate)] were 1 to 10 µM, greater than 50 µM and 1 to 10 µM.
As for `CCCCc1nc2ccc(NC/C(=C\F)CN)cc2o1` [Example 44, (Z)—N1-(2-butylbenzo[d]oxazol-6-yl)-2-(fluoromethylene)propane-1,3-diamine 4-methylbenzenesulfonate], the IC50 was less than 0.1 µM against rhVAP-1, 10 to 30 µM on rhMAO-A (setting [1]) and 0.1 to 1 µM against rhMAO-B (setting [1]).
`CCCCc1nc2cc(OC/C(=C/F)CN)ccc2o1` [Example 8, (E)-2-(((2-butylbenzo[d]oxazol-5-yl)oxy)methyl)-3-fluoroprop-2-en-1-amine 4-methylbenzenesulfonate]: the IC50 on rhVAP-1 is less than 0.1 µM; against rhMAO-A (setting [1]), 1 to 10 µM; on rhMAO-B (setting [1]), less than 0.1 µM.
`CCCNc1nc2ccc(OC/C(=C\F)CN)c(F)c2s1` [Example 14, (Z)-6-((2-(aminomethyl)-3-fluoroallyl)oxy)-7-fluoro-N-propylbenzo[d]thiazol-2-amine 4-methylbenzenesulfonate]: the results for the IC50 against rhVAP-1, at rhMAO-A (setting [1]) and against rhMAO-B (setting [1]) were less than 0.1 µM, 1 to 10 µM and 1 to 10 µM, respectively.
Turning to `NC/C(=C/F)COc1ccc2nc(NC3CCC(O)CC3)oc2c1` (stereo not drawn) [Example 78, (Z)-4-((6-((2-(aminomethyl)-3-fluoroallyl)oxy)benzo[d]oxazol-2-yl)amino)cyclohexan-1-ol 4-methylbenzenesulfonate], the IC50 at rhVAP-1 was less than 0.1 µM; at rhMAO-A (bound printed in cell) it was greater than 50 µM; at rhMAO-B (setting [1]), 1 to 10 µM.
As for `NC/C(=C\F)COc1ccc2nc(C34CC5CC(CC(C5)C3)C4)oc2c1` [Example 54, (E)-2-(((2-((3r,5r,7r)-adamantan-1-yl)benzo[d]oxazol-6-yl)oxy)methyl)-3-fluoroprop-2-en-1-amine 4-methylbenzenesulfonate], the IC50 is less than 0.1 µM on rhVAP-1, 1 to 10 µM on rhMAO-A (setting [1]) and 1 to 10 µM at rhMAO-B (setting [1]).
Take `CN(Cc1ccccc1)c1nc2ccc(OC/C(=C/F)CN)cc2o1` [Example 49, (E)-6-((2-(aminomethyl)-3-fluoroallyl)oxy)-N-benzyl-N-methylbenzo[d]oxazol-2-amine 4-methylbenzenesulfonate]: the IC50 against rhVAP-1 was less than 0.1 µM; at rhMAO-A (setting [1]), 10 to 30 µM; against rhMAO-B (setting [1]) it was 0.1 to 1 µM.
Take `CCCN(C)c1nc2ccc(OC/C(=C/F)CN)cc2o1` [Example 46, (E)-6-((2-(aminomethyl)-3-fluoroallyl)oxy)-N-methyl-N-propylbenzo[d]oxazol-2-amine 4-methylbenzenesulfonate]: the IC50 against rhVAP-1 was less than 0.1 µM; against rhMAO-A (setting [1]), 1 to 10 µM; against rhMAO-B (setting [1]), 1 to 10 µM.
As for `CC1CN(c2nc3ccc(OC/C(=C/F)CN)cc3o2)C1` [Example 33, (E)-3-fluoro-2-(((2-(3-methylazetidin-1-yl)benzo[d]oxazol-6-yl)oxy)methyl)prop-2-en-1-amine 4-methylbenzenesulfonate], the IC50 against rhVAP-1 was less than 0.1 µM; against rhMAO-A (setting [1]), 10 to 30 µM; against rhMAO-B (setting [1]), 0.1 to 1 µM.
In the case of `CCCCc1nc2ccc(N(C)C/C(=C/F)CN)cc2o1` [Example 20, (E)-N1-(2-butylbenzo[d]oxazol-6-yl)-2-(fluoromethylene)-N1-methylpropane-1,3-diamine], the 50% inhibitory concentration (IC50) against rhVAP-1 is less than 0.1 µM; on rhMAO-A (setting [1]), 10 to 30 µM; against rhMAO-B (setting [1]), 1 to 10 µM.
Taken in the same sequence, the figures for `NC/C(=C\F)COc1ccc2nc(N3CC4(COC4)C3)oc2c1` [Example 67, (E)-2-(((2-(2-oxa-6-azaspiro[3.3]heptan-6-yl)benzo[d]oxazol-6-yl)oxy)methyl)-3-fluoroprop-2-en-1-amine 4-methylbenzenesulfonate] were less than 0.1 µM, 1 to 10 µM and 1 to 10 µM.
In the case of `NC/C(=C/F)COc1ccc2nc(N3CCC(O)CC3)oc2c1` [Example 77, (Z)-1-(6-((2-(aminomethyl)-3-fluoro-allyl)oxy)benzo[d]oxazol-2-yl)piperidin-4-ol 4-methylbenzenesulfonate], the figures for the IC50 against rhVAP-1, at rhMAO-A (setting [1]) and against rhMAO-B (bound printed in cell) were less than 0.1 µM, 1 to 10 µM and greater than 50 µM, respectively.

(Values after patent publication US20230295140A1, “INHIBITORS OF VAP-1” (Acucela Inc., priority 2021, published 2023).)
